Reference: patent publication EP3072956A1, “Selective culture medium for polymyxin-resistant, gram-negative bacteria” (priority 2015, dated 2016)

Legend:
Assay in all cases: MIC determination by broth microdilution (MHB-CA, CLSI)
Type in all cases: cell-based
E. aerogenes = settings: strain 36F8
Description: (§1) Determination of MIC values were performed by broth microdilution in Cation-Adjusted Mueller-Hinton broth (MHB-CA) according to the CLSI guidelines (Clinical and Laboratory Standards Institute). Polymyxin B and colistin (Sigma-Aldrich, Saint-Louis) were tested with or without Tween 80 over a range dilution from 0.12 to 128 µg/ml. The surfactant Tween 80, at a final concentration of 0.002%, prevents the binding of polymyxins to multi-array plastic panel. Actually, the use of Tween for determination of MIC of polymyxins is still debatable. MHB-CA broth and 5.10^5 CFU/ml of each tested strain were distributed in each well. Following the EUCAST breakpoints, strains were characterized as susceptible or resistant to polymyxins.

M. morganii = settings: strain Mmor
Description: as §1

P. stuartii = settings: strain Pstu
Description: as §1

Substance	MIC (E. aerogenes; With Tween80) [µg/mL]	MIC (E. aerogenes; Without Tween80) [µg/mL]	MIC (M. morganii; With Tween80) [µg/mL]	MIC (M. morganii; Without Tween80) [µg/mL]	MIC (P. stuartii; With Tween80) [µg/mL]	MIC (P. stuartii; Without Tween80) [µg/mL]
colistin	0.12	0.12	>128	>128	>128	>128
polymyxin B	0.12	0.12	>128	>128	>128	>128
